In patent US20100099871A1, “ANTI-PSYCHOTIC COMPOUNDS AND PHARMACEUTICAL COMPOSITIONS THEREOF” (priority 2008, published 2010):

Experiments:
Alpha 1D = Alpha 1D (Homo sapiens, UniProt P25100); experiment: In vitro receptor binding, Alpha 1D; conditions: given in words, no number
Procedure: (§1) Three of the compounds predicted to display antipsychotic activity have been synthesized and characterized. Once compounds meeting selection criteria of the spectral models were identified, confirmatory in vitro screening and cross-screening were conducted. For example, receptor binding studies were conducted for 5-HT1A, 5-HT2A, 5-HT2C, 5-HT6, 5-HT7, α1A, α1B, α1D, α2A, α2B, α2C, D2, H1, M1, M2, M3, M4, and M5 to further determine a broad pharmacological profile for compounds meeting spectral modeling selection criteria. Synthesis and characterization of these compounds is provided as an Experimental Example. […] For D2 and 5-HT2A receptors, experimental results were within 11% of predicted values. […] In some embodiments, the compounds are selective for 5-HT2A over D2. […] As such the compounds are advantageous over clozapine and may be beneficial for treating psychotic conditions, such as schizophrenia.

5-HT6 = 5-HT6 (Homo sapiens, UniProt P50406); experiment: In vitro receptor binding, 5-HT6; conditions: read-out: In vitro testing data (receptor binding affinity), 5-HT6
Sequence of 5-HT6 (P50406 whole entry, species assumed): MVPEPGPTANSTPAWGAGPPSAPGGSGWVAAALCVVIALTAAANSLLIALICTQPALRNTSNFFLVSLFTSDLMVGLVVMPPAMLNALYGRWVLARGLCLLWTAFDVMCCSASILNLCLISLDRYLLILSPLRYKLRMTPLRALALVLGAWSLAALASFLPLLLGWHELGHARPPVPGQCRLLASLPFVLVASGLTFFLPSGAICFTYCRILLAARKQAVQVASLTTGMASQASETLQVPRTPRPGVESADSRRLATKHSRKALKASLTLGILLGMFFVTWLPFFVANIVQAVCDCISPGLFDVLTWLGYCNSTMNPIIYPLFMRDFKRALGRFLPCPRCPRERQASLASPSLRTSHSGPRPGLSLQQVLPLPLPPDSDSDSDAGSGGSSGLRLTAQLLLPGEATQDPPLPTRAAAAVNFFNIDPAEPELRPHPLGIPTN
Procedure: as §1

M2 = M2 (Homo sapiens, UniProt P08172); experiment: In vitro receptor binding, M2; conditions: read-out: In vitro testing data (receptor binding affinity), M2
Procedure: as §1

Alpha 2A = Alpha 2A (Homo sapiens, UniProt P08913); experiment: In vitro receptor binding, Alpha 2A; conditions: given in words, no number
Sequence of Alpha 2A (P08913 whole entry): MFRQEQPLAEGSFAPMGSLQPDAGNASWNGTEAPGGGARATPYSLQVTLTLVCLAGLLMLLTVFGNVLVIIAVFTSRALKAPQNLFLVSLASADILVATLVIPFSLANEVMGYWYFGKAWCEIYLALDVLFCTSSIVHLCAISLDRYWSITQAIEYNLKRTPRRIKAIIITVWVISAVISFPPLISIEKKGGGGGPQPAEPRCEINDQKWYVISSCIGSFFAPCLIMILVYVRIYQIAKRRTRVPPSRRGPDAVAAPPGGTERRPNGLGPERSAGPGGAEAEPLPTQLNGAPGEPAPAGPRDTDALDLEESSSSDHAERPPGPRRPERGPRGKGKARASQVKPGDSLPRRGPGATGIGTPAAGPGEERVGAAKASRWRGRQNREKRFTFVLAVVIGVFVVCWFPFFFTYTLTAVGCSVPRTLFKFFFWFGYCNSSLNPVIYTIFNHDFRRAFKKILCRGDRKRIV
Procedure: as §1

5-HT2c = 5-HT2c (Homo sapiens, UniProt P28335); experiment: In vitro receptor binding, 5-HT2c; conditions: read-out: In vitro testing data (receptor binding affinity), 5-HT2c
Sequence of 5-HT2c (P28335 33-458, species assumed): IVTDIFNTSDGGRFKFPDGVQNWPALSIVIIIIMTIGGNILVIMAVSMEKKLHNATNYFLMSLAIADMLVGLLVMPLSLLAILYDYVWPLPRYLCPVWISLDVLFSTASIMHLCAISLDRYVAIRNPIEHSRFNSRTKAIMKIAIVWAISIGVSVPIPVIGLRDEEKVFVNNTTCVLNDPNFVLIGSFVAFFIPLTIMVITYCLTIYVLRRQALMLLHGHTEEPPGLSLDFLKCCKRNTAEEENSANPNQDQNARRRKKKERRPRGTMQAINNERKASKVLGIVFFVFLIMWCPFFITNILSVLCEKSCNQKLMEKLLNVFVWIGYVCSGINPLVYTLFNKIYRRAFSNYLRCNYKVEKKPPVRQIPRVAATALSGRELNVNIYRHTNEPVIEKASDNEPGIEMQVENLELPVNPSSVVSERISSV
Procedure: as §1

M3 = M3 (Homo sapiens, UniProt P20309); experiment: In vitro receptor binding, M3; conditions: read-out: In vitro testing data (receptor binding affinity), M3
Sequence of M3 (P20309 whole entry): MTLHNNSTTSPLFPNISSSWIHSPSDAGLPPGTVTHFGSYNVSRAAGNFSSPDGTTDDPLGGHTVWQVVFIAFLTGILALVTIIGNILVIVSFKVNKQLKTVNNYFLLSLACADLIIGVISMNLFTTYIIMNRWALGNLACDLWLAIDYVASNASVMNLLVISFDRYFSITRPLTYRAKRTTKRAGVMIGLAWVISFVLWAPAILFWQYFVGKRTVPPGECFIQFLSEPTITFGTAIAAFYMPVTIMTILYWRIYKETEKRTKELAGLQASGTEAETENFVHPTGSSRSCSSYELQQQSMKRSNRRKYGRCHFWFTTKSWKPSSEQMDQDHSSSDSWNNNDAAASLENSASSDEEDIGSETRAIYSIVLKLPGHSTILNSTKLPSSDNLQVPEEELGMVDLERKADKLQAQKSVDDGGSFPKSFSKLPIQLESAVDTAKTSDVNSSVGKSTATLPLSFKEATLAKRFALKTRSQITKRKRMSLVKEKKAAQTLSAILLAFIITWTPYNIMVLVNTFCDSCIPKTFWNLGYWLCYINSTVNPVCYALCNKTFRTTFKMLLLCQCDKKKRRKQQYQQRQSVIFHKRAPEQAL
Procedure: as §1

M1 = M1 (Homo sapiens, UniProt P11229); experiment: In vitro receptor binding, M1; conditions: read-out: In vitro testing data (receptor binding affinity), M1
Sequence of M1 (P11229 whole entry): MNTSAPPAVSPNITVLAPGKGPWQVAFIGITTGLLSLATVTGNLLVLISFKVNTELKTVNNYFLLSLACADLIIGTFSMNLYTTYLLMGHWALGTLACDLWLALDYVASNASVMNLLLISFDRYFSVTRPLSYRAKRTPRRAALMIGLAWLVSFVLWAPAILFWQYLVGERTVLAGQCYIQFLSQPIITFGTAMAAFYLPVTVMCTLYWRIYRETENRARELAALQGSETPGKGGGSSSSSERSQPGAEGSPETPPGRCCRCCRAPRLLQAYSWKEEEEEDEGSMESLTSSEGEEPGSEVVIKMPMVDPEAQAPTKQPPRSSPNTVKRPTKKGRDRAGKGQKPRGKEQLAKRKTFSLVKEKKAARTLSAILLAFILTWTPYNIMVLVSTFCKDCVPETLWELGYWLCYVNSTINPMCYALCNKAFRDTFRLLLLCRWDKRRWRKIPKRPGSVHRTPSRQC
Procedure: as §1

M5 = M5 (Homo sapiens, UniProt P08912); experiment: In vitro receptor binding, M5; conditions: read-out: In vitro testing data (receptor binding affinity), M5
Sequence of M5 (P08912 whole entry): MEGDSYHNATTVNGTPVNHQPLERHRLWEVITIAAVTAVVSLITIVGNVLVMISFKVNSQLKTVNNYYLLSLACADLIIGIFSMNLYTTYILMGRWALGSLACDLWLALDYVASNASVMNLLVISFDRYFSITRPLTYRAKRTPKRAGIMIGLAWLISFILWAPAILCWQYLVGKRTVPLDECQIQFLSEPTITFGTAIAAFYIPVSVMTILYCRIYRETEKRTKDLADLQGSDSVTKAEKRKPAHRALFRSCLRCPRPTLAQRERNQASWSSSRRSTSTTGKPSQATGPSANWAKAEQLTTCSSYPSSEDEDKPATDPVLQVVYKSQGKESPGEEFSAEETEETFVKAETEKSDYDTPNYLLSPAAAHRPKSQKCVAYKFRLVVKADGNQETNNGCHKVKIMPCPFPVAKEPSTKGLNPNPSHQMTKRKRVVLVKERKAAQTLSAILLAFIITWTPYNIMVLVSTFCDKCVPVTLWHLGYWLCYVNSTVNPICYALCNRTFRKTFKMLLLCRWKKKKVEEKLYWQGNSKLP
Procedure: as §1

M4 = M4 (Homo sapiens, UniProt P08173); experiment: In vitro receptor binding, M4; conditions: read-out: In vitro testing data (receptor binding affinity), M4
Procedure: as §1

D2 = D2 (Homo sapiens, UniProt P14416); experiment: In vitro receptor binding, D2; conditions: read-out: In vitro testing data (receptor binding affinity), D2
Procedure: as §1

Alpha 2B = Alpha 2B (Homo sapiens, UniProt P18089); experiment: In vitro receptor binding, Alpha 2B; conditions: given in words, no number
Sequence of Alpha 2B (P18089 whole entry): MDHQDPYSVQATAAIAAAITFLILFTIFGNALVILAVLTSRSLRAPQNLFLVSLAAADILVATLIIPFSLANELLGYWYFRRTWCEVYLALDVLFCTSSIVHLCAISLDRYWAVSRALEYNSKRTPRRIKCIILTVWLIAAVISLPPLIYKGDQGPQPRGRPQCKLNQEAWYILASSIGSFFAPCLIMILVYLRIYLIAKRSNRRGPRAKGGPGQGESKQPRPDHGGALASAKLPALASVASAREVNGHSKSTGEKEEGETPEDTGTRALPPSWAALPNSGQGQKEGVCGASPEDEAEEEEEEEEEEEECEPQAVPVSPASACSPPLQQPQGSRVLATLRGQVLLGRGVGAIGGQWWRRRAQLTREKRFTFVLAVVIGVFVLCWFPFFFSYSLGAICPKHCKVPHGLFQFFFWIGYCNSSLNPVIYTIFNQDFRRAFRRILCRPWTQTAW
Procedure: as §1

Alpha 1A = Alpha 1A (Homo sapiens, UniProt P35348); experiment: In vitro receptor binding, Alpha 1A; conditions: given in words, no number
Procedure: as §1

Alpha 1B = Alpha 1B (Homo sapiens, UniProt P35368); experiment: In vitro receptor binding, Alpha 1B; conditions: given in words, no number
Procedure: as §1

Alpha 2C = Alpha 2C (Homo sapiens, UniProt P18825); experiment: In vitro receptor binding, Alpha 2C; conditions: given in words, no number
Procedure: as §1

5-HT2a = 5-HT2a (Homo sapiens, UniProt P28223); experiment: In vitro receptor binding, 5-HT2a; conditions: read-out: In vitro testing data (receptor binding affinity), 5-HT2a
Sequence of 5-HT2a (P28223 whole entry, species assumed): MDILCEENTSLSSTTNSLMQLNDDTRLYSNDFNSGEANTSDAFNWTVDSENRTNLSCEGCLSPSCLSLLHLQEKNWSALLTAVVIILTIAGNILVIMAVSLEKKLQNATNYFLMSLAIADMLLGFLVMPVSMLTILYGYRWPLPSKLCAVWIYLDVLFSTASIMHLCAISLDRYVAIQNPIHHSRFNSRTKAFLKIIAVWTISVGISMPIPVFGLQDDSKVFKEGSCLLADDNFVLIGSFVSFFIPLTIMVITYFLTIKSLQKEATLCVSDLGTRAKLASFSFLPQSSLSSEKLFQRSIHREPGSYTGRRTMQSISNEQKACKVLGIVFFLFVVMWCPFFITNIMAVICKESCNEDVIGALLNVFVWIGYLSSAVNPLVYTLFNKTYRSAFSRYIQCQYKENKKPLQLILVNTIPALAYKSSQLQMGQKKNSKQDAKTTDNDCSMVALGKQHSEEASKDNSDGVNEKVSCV
Procedure: as §1

H1 = H1 (Homo sapiens, UniProt P35367); experiment: In vitro receptor binding, H1; conditions: read-out: In vitro testing data (receptor binding affinity), H1
Sequence of H1 (P35367 whole entry): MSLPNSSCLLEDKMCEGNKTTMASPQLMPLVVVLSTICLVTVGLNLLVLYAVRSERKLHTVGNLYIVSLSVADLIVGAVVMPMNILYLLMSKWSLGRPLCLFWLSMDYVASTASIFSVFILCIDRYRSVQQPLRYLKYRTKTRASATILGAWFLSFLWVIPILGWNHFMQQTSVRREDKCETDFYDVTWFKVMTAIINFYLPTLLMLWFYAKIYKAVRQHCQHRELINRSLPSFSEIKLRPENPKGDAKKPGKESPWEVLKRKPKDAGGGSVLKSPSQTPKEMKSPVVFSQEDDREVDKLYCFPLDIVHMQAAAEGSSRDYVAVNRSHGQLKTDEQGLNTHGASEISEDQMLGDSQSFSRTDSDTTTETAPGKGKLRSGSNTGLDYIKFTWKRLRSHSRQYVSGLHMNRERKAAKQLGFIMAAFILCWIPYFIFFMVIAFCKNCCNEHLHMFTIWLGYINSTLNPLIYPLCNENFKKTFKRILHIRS
Procedure: as §1

5-HT7 = 5-HT7 (Homo sapiens, UniProt P34969); experiment: In vitro receptor binding, 5-HT7; conditions: read-out: In vitro testing data (receptor binding affinity), 5-HT7
Sequence of 5-HT7 (P34969 whole entry, species assumed): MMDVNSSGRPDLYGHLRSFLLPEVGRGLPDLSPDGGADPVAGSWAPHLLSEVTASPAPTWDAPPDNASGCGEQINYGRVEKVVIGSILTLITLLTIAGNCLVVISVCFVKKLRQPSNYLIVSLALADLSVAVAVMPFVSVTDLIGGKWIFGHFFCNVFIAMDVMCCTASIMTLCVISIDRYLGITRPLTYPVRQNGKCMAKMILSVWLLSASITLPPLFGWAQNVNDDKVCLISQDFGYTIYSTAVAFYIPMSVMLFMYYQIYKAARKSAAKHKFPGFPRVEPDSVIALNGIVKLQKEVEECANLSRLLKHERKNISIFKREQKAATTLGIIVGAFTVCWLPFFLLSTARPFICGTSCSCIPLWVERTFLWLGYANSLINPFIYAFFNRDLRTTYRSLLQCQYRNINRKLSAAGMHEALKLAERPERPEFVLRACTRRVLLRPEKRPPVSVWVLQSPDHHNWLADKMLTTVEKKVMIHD
Procedure: as §1

[1] = test system: pre-frontal cortex dopamine release; experiment: In vivo microdialysis, pre-frontal cortex dopamine release; parameters: species or system male Sprague-Dawley rats; conditions: rat microdialysis
Procedure: (§2) In vivo microdialysis studies were conducted according to established methods. In summary, two cannulae with microdialysis probes were implanted via stereotaxic surgery (one each into two separate brain regions), into the medial prefrontal cortex and nucleus accumbens of male Sprague-Dawley rats weighing from 250 g to 300 g. After recovery from surgery, a solution was circulated through the probes on test days collecting extracellular synaptic fluid at 30-minute intervals and delivering it to an HPLC for analysis of extracellular dopamine concentrations in real time following antipsychotic compound dosing. Simultaneously, an aliquot was taken and frozen for later mass spectrometric determination of acetylcholine concentrations.

[2] = test system: nucleus accumbens dopamine release; experiment: In vivo microdialysis, nucleus accumbens dopamine release; parameters: species or system male Sprague-Dawley rats; conditions: rat microdialysis; ceiling effect, increasing dose gave no additional release (FIG. 12)
Procedure: as §2

[3] = test system: pre-frontal cortex acetylcholine release; experiment: In vivo microdialysis, pre-frontal cortex acetylcholine release; parameters: species or system male Sprague-Dawley rats; conditions: rat microdialysis (FIG. 13); LMD-00100t at the maximum dose tested, data not shown
Procedure: as §2

5-HT1a = 5-HT1a (Homo sapiens, UniProt P08908); experiment: In vitro receptor binding, 5-HT1a; conditions: given in words, no number
Procedure: as §1

| SMILES | In vitro testing data, Alpha 1D (yes) (Alpha 1D) | Kd (5-HT6) [nM] | Kd (M2) [nM] | In vitro testing data, Alpha 2A (yes) (Alpha 2A) | Kd (5-HT2c) [nM] | Kd (M3) [nM] | Kd (M1) [nM] | Kd (M5) [nM] | Kd (M4) [nM] | Kd (D2) [nM] | In vitro testing data, Alpha 2B (yes) (Alpha 2B) | In vitro testing data, Alpha 1A (yes) (Alpha 1A) | In vitro testing data, Alpha 1B (yes) (Alpha 1B) | In vitro testing data, Alpha 2C (yes) (Alpha 2C) | Kd (5-HT2a) [nM] | Kd (H1) [nM] | Kd (5-HT7) [nM] | further results |
| --- | --- | --- | --- | --- | --- | --- | --- | --- | --- | --- | --- | --- | --- | --- | --- | --- | --- | --- |
| CCN1CCN(CCN2c3ccccc3Cc3ccccc32)CC1 [LMD-00060] | yes | 1520 | > 10000 | yes | 2740 | 2490 | 1360 | 613 | 1910 | 632 | yes | yes | yes | yes | 349 | 255 | 1060 | – |
| CN1CCN(CCN2c3ccccc3Cc3ccccc32)CC1 [LMD-00076] | yes | 652 | 3330 | yes | 968 | 702 | 707 | 419 | 1100 | 692 | yes | yes | yes | yes | 249 | 185 | 1140 | pre-frontal cortex dopamine efflux on co-dosing with WAY 100635 ([1]; 5-HT1A silent antagonist WAY 100635 co-dosed with LMD-00076 (FIG. 11, curve labeled control)): blocked; pre-frontal cortex dopamine release ([1]; as a function of time following administration (FIG. 11, FIG. 14)): dose-dependent; nucleus accumbens dopamine release [2]: modest increase; cortical acetylcholine (ACh) efflux [3]: significant increase; In vitro testing data, 5-HT1a (yes / dash) (5-HT1a): yes |
